Assays:
U2OS [1] = test: (§1) Here: values are normalized to the negative (DMSO; defined as 0% autophagy induction) and positive (250nM Torin1; mTOR inhibitor; defined as maximal inducer of autophagy = 100%) control compounds and represented as % of autophagy induction. […] The impact of autophagy induction on cells is complex and depends on the affected target. As such, the magnitude of a phenotype may not be equally mirrored in the %-value of autophagy induction and vice versa. The dynamics of the induction may indicate the mode of activation: e.g. activation via phosphorylation or a signaling cascade may occur fast, while activation via transcription factors may take considerably longer. […] Of note, treatment concentrations may be sub-optimal for specific compounds, leading to false negative annotations.; assay type: functional, Homo sapiens; settings: Culturing Media DMEM, 1 % Penicillin/Streptomycin, 10% Fetal bovin serum Add-On: No, Screening Media Control DMEM, Screening Media Samples DMEM
U2OS [2] = test: as §1; assay type: functional, Homo sapiens; settings: Culturing Media DMEM, 1 % Penicillin/Streptomycin, 10% Fetal bovin serum Add-On: No, Screening Media Control DMEM, Screening Media Samples DMEM; remark: listed apart in the source
[3] = Compound Concentration 0.5 uM, Timepoint 12 hours
[4] = Compound Concentration 0.5 uM, Timepoint 24 hours
[5] = Compound Concentration 0.5 uM, Timepoint 36 hours
[6] = Compound Concentration 0.5 uM, Timepoint 60 hours
[7] = Compound Concentration 2 uM, Timepoint 12 hours
[8] = Compound Concentration 2 uM, Timepoint 24 hours
[9] = Compound Concentration 2 uM, Timepoint 36 hours
[10] = Compound Concentration 2 uM, Timepoint 60 hours
[11] = Compound Concentration 10 uM, Timepoint 12 hours
[12] = Compound Concentration 10 uM, Timepoint 24 hours
[13] = Compound Concentration 10 uM, Timepoint 36 hours
[14] = Compound Concentration 10 uM, Timepoint 60 hours

| Compound | autophagy induction (U2OS [1]; [3]) | autophagy induction (U2OS [1]; [4]) | autophagy induction (U2OS [1]; [5]) | autophagy induction (U2OS [1]; [6]) | autophagy induction (U2OS [1]; [7]) | autophagy induction (U2OS [1]; [8]) | autophagy induction (U2OS [1]; [9]) | autophagy induction (U2OS [1]; [10]) | autophagy induction (U2OS [1]; [11]) | autophagy induction (U2OS [1]; [12]) | autophagy induction (U2OS [1]; [13]) | autophagy induction (U2OS [1]; [14]) | autophagy induction (U2OS [2]; [3]) | autophagy induction (U2OS [2]; [4]) | autophagy induction (U2OS [2]; [5]) | autophagy induction (U2OS [2]; [6]) | autophagy induction (U2OS [2]; [7]) | autophagy induction (U2OS [2]; [8]) | autophagy induction (U2OS [2]; [9]) | autophagy induction (U2OS [2]; [10]) | further results |
| --- | --- | --- | --- | --- | --- | --- | --- | --- | --- | --- | --- | --- | --- | --- | --- | --- | --- | --- | --- | --- | --- |
| CCCCCNC(=O)NS(=O)(=O)c1cc([N+](=O)[O-])ccc1NC1CCCCC1 | 1.311% | 2.21% | -1.399% | -21.9841% | 12.2747% | 3.055% | 0.8075% | -5.198% | 0.1217% | -4.73% | -6.08% | -12.7619% | -2.4637% | -2.287% | -1.179% | 114.19% | -2.891% | -2.398% | -2.2883% | 114.254% | autophagy induction (U2OS [2]; [11]): -6.232%; autophagy induction (U2OS [2]; [12]): -4.153%; autophagy induction (U2OS [2]; [13]): -3.872%; autophagy induction (U2OS [2]; [14]): 114.439% |
| Cc1csc2c(N[C@@H](C)CN3CCN(S(=O)(=O)c4ccc(Cl)c(Cl)c4)CC3)ncnc12 | 6.768% | 8.8628% | 13.6009% | 4.711% | 2.53% | 6.7674% | 12.0314% | 11.989% | 12.5309% | 16.4077% | 26.9308% | 28.2658% | -0.007707% | -1.5% | -0.4844% | -654.702% | 4.101% | 0.5386% | -0.3647% | 114.139% | autophagy induction (U2OS [2]; [11]): -10.3141%; autophagy induction (U2OS [2]; [12]): -6.4207%; autophagy induction (U2OS [2]; [13]): -4.537%; autophagy induction (U2OS [2]; [14]): 114.595% |
| COc1cccc(-c2c(C)n(Cc3c(F)cccc3C(F)(F)F)c(=O)n(C[C@H](NCCCC(=O)[O-])c3ccccc3)c2=O)c1F.[Na+] [ELAGOLIX SODIUM] | 4.133% | 4.438% | 6.469% | -7.02% | 12.3647% | 8.125% | 1.282% | -8.542% | -6.525% | -4.485% | -1.897% | -2.895% | -3.352% | -3.1643% | -0.7483% | -1111.24% | -6.63% | -5.163% | -4.643% | 114.391% | autophagy induction (U2OS [2]; [11]): -2.89%; autophagy induction (U2OS [2]; [12]): -3.023%; autophagy induction (U2OS [2]; [13]): -0.9947%; autophagy induction (U2OS [2]; [14]): 114.218% |
| COc1ccc(/C=C/CCCCOc2ccc(C(=O)c3cccc(C(=O)O)c3)cc2CCC(=O)O)cc1 | 4.029% | -1.055% | -5.293% | -4.291% | -4.414% | -2.822% | -3.285% | 2.49% | -13.0779% | -9.945% | -0.5172% | -0.9267% | -1.627% | -2.76% | -1.525% | 114.261% | 2.991% | -2.166% | -0.5097% | 114.413% | autophagy induction (U2OS [2]; [11]): 6.765%; autophagy induction (U2OS [2]; [12]): 1.033%; autophagy induction (U2OS [2]; [13]): 1.832%; autophagy induction (U2OS [2]; [14]): 114.224% |
